Measured values published in patent publication US12583818B2 (DAEGU-GYEONGBUK MEDICAL INNOVATION FOUNDATION, priority 2020, dated 2026).
pIC50: −log10 of the molar value. Where two headings read alike, the source gives them in different places.

What was measured:
Pin1 = target: T1, Pin1 (Homo sapiens, UniProt Q13526); assay: Evaluation of Pin1 enzyme inhibitory activity (Sensolyte Green Pin1 assay kit); format: biochemical
T1 construct: purchased Anaspec
How it was run: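 Pin1 activity was measured with a fluorogenic kit assay (Sensolyte Green) using substrate prepared at 1 μM and protein at 50 μg/ml, both pre-mix concentrations. Compound working solutions were 100, 10, 1 or 0.1 μM, and reactions ran 2 h at room temperature in the dark, read at 490/520 nm. Inhibition was graded A–D by concentration.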

[1] = system: MDA-MB 231 triple negative breast cancer cell line; assay: MDA-MB 231 protein expression inhibition (Western blotting, cycline D1 vs Vinculin); format: cell-based; details: Homo sapiens, compound 10 μM, 72 hours, cycline D1 Western blot, read-out: MBA-MB-231 (amount of the protein compared to the DMSO-treated control group)
Protocol: In order to confirm the ability of the compound represented by formula 1 according to the present invention to inhibit the protein expression of MDA-MB 231 triple negative breast cancer cell line, the following experiment was performed, and the results are shown in Table 3 below.
MDA-MB-231 cells were cultured in a 5% CO2 incubator at 37° C. using RPMI medium supplemented with 10% FBS and 1% penicillin/streptomycin.
The cells were washed with PBS once a day, and then replaced with a new medium. The cells grown at the density of at least 90% 1 day before the experiment were detached using trypsin/EDTA, and then plated at the density of 100,000 per well in a 6-well plate.
On the next day of culture, the compound prepared in each example was treated at a concentration of 10 μM, and DMSO was treated at a concentration of 0.1% of the total as the control, followed by incubation for 72 hours. After 72 hours, the cells were washed twice with PBS, collected by scraping, and centrifuged at 13,000 rpm for 3 minutes to remove all the supernatant and only cells were taken.
RIPA buffer (containing 1× protease inhibitor and phosphatase inhibitor) was added to the prepared cells (80 μl/well), and the plate was shaken once every 5 minutes to disrupt the cells for a total of 15 minutes. The disrupted cells were centrifuged at 13,000 rpm for 15 minutes to collect only the supernatant protein. The obtained protein was quantified using a BCA protein quantification kit (Pierece, MA, USA), and a total of 10 μg of the protein was used for Western blotting.
The protein sample was isolated by 10% SDS-PAGE, and transferred to a PVDF membrane. Anti-human cycline D1 antibody (Cell signal) and anti-Vinculin antibody were bound to the protein sample, and the expression of the protein was measured by using an ECL reagent and LAS4000 equipment. The measurement results were quantified and generalized using ImageJ. The results are shown in Table 3 below by dividing the grades A to D according to the amount of the protein compared to the DMSO-treated control group.

[2] = system: MCF7 cells (breast cancer cells); assay: Cell viability of MCF7 cells (Cell-titer Glo); format: cell-based; details: Homo sapiens
Protocol: (§1) In order to confirm the inhibitory effect of the compound represented by formula 1 according to the present invention on the growth of MCF7, MCF7-SP, A2780 or A2780-SP cells, the following experiment was performed, and the results are shown in Tables 4 and 5 below.
MCF7 cells (breast cancer cells) were plated in a 96-well plate at the density of 3000 viable cells per well, and cultured in DMEM/High glucose medium supplemented with 10% FBS and 1% penicillin/streptomycin.
(§2) On the next day of culture, the cells were treated with the compound of Example 71, 76, 80, 84, 92, 99, 100 or 119, followed by culture for 3 days. Cell viability was evaluated by Cell-titer Glo (Promega, WC, USA), and luciferase activity was detected using a Tecan plate reader (Biocompare, USA).

[3] = system: MCF7-SP cells (breast cancer stem cells); assay: Sphere cell viability of MCF7-SP cells (Cell-titer Glo); format: cell-based
Protocol: as §1
On the other hand, MCF7-SP cells (breast cancer stem cells) were plated in an Ultra-Low Attachment round bottom 96-well plate (corning) at the density of 1,500 viable cells per well, and cultured in cancer stem cell medium. The cancer stem cell medium is composed of the neurobasal medium supplemented with 20 ng/ml of bFGF, 10 ng/ml of EGF, 2.5 […], HEPES, Glutamax and B27.
as §2, with “for 8” for “for 3”, “days. The medium containing the compound was added thereto once again on the 4th day. Sphere cell” for “days. Cell”

[4] = system: A2780 cells (ovarian cancer cells); assay: Cell viability of A2780 cells (Cell-titer Glo); format: cell-based; details: Homo sapiens
How it was run: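 A2780 ovarian cancer cells seeded at 3000 viable cells/well in RPMI-1640 with 10% FBS, dosed the next day and grown 3 days. Viability measured by Cell-titer Glo luminescence.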

[5] = system: A2780-SP cells (ovarian cancer stem cells); assay: Sphere cell viability of A2780-SP cells (Cell-titer Glo); format: cell-based
How it was run: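 A2780-SP ovarian cancer stem cells grown as spheres in ultra-low-attachment wells (1,500 cells/well) in neurobasal stem-cell medium with bFGF, EGF, B27. Compound added the day after plating, re-dosed on day 4, 8-day culture total; viability by CellTiter-Glo luminescence.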

[6] = Table 2, read-out: concentration at which Pin1 inhibitory activity was exhibited
[7] = concentration at which the Pin1 enzyme activity is inhibited, 2 hours at room temperature, fluorescence 490 nm/520 nm, read-out: Pin 1 inhibition
[8] = 72 h, cell viability, culture for 3 days, read-out: MCF7
[9] = MCF7, text summary of Table 4, read-out: MCF7 cell concentration
[10] = 192 h, sphere cell viability, culture for 8 days, read-out: MCF7-SP
[11] = text summary of Table 4, read-out: MCF7-SP cell concentration
[12] = 72 h, cell viability, culture for 3 days, read-out: A2780
[13] = A2780, Table 5, read-out: A2780 cell concentration
[14] = 192 h, sphere cell viability, culture for 8 days, read-out: A2780-SP
[15] = Table 5, read-out: the concentration (second list of b710, cell line not named; matches A2780-SP column)

T1 sequence (Q13526 whole entry): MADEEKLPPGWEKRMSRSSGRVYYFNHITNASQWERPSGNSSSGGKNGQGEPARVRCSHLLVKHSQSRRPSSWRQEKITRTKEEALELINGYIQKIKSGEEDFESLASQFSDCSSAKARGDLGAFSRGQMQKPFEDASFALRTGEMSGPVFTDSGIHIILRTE

Compound | pIC50 (Pin1; [6]) | pIC50 (Pin1; [7]) | pIC50 [2, 8] | pIC50 [2, 9] | pIC50 [3, 10] | pIC50 [3, 11] | pIC50 [4, 12] | pIC50 [4, 13] | pIC50 [5, 14] | pIC50 [5, 15] | activity at 10 µM [1]
CN1CCCN(CCCOc2ccc(S(=O)(=O)NCCCc3c[nH]c4ccc(Cl)cc34)cc2)CC1 [Example 83, N-(3-(5-chloro-1H-indol-3-yl)propyl)-4-(3-(4-methyl-1,4-diazepan-1-yl)propoxy)benzenesulfonamide] | > 6.00 | > 6.00 | 5.00 to 6.00 | > 5.00 | 5.00 to 6.00 | > 5.00 | 5.00 to 6.00 | > 5.00 | > 6.00 | > 6.00 | 0 to 35%
O=S(=O)(NCCCc1c[nH]c2ccc(Cl)cc12)c1ccc(CCCCN2CCNCC2)cc1 [Example 91, N-(3-(5-chloro-1H-indol-3-yl)propyl)-4-(4-(piperazin-1-yl)butyl)benzenesulfonamide] | > 6.00 | > 6.00 | 5.00 to 6.00 | > 5.00 | 5.00 to 6.00 | > 5.00 | < 5.00 |  | > 6.00 | > 6.00 | 0 to 35%
CN1CCN(CCCNc2ccc(S(=O)(=O)NCCCc3c[nH]c4ccc(Cl)cc34)cc2)CC1 [Example 98, N-(3-(5-chloro-1H-indole-3-yl)propyl)-4-((3-(4-methylpiperazine-1-yl)propyl)amino)benzenesulfonamide] | > 6.00 | > 6.00 | < 5.00 |  | < 5.00 |  | 5.00 to 6.00 | > 5.00 | 5.00 to 6.00 |  | 0 to 35%
O=S(=O)(NCCCc1c[nH]c2ccc(Cl)cc12)c1ccc(CCCCC2CCNCC2)cc1 [Example 99, N-(3-(5-chloro-1H-indole-3-yl)propyl)-4-(4-(piperidine-4-yl)butyl)benzenesulfonamide] | > 6.00 | > 6.00 | 5.00 to 6.00 | > 5.00 | 5.00 to 6.00 | > 5.00 | 5.00 to 6.00 | > 5.00 | > 6.00 | > 6.00 | 0 to 35%
CN1CCN(c2cccc(Oc3ccc(S(=O)(=O)NCCCc4c[nH]c5ccc(Cl)cc45)cc3)c2)CC1 [Example 118, N-(3-(5-chloro-1H-indole-3-yl)propyl)-4-(3-(4-methylpiperazine-1-yl)phenoxy)benzenesulfonamide] | > 6.00 | > 6.00 | 5.00 to 6.00 | > 5.00 | 5.00 to 6.00 | > 5.00 | < 5.00 |  | > 6.00 | > 6.00 | 50 to 70%

The next lines start with results.

pIC50 (Pin1; [6]) | pIC50 (Pin1; [7]) | pIC50 [2, 8] | pIC50 [2, 9] | pIC50 [3, 10] | pIC50 [3, 11] | pIC50 [4, 12] | pIC50 [4, 13] | pIC50 [5, 14] | pIC50 [5, 15] | Compound | activity at 10 µM [1]
> 6.00 | > 6.00 | 5.00 to 6.00 | > 5.00 | 5.00 to 6.00 | > 5.00 | 5.00 to 6.00 | > 5.00 | > 6.00 | > 6.00 | O=S(=O)(NCCCc1c[nH]c2ccc(Cl)cc12)c1ccc(OCCCN2CCNCC2)cc1 [Example 70, N-(3-(5-chloro-1H-indol-3-yl)propyl)-4-(3-(piperazin-1-yl)propoxy)benzenesulfonamide] | 0 to 35%
> 6.00 | > 6.00 | 5.00 to 6.00 | > 5.00 | < 5.00 |  | 5.00 to 6.00 | > 5.00 | 5.00 to 6.00 |  | O=S(=O)(NCCCc1c[nH]c2ccc(Cl)cc12)c1ccc(OCCCN2CCC(O)CC2)cc1 [Example 75, N-(3-(5-chloro-1H-indol-3-yl)propyl)-4-(3-(4-hydroxypiperidin-1-yl)propoxy)benzenesulfonamide] | 0 to 35%
> 6.00 | > 6.00 | < 5.00 |  | < 5.00 |  | < 5.00 |  | > 6.00 | > 6.00 | O=S(=O)(NCCCc1c[nH]c2ccc(Cl)cc12)c1ccc(OCCCN2CCNCC2)nc1 [Example 79, N-(3-(5-chloro-1H-indole-3-yl)propyl)-6-(3-(piperazine-1-yl)propoxy)pyridine-3-sulfonamide] | 0 to 35%
